Measurements published in article PMC10141580, “Cyclic Dichalcogenides Extend the Reach of Bioreductive Prodrugs to Harness Thiol/Disulfide Oxidoreductases: Applications to seco-Duocarmycins Targeting the Thioredoxin System” (ACS Central Science, 2023).
Several values for one entry are separate records, joined by “and”; a condition that tells them apart may be missing. Identical values can stand only once. Like-named read-outs stand apart in the source and are kept apart here.

Tested on: panel of 140 standard cancer cell lines
Experiment: ProliFiler-140 cancer cell line screen (CellTiterGlo, 72 h)
Type: cell-based
Protocol: Incubations were performed for 72 h before automated viability readout with CellTiterGlo (Figure 8).
End of Figure S11 (part 5 of 5): ProliFiler-140 cancer cell line screening for cytotoxicity of the prodrugs.
8-data-point dose response curves from CellTiter-Glo® viability readout.
ProliFiler-140 cell line panel part V

**Q.** For `COc1cc2cc(C(=O)N3C[C@@H](CCl)c4c3cc(OC(=O)N3CCN(C(=O)CCC(=O)N5CCN(C)CC5)[C@H]5CSSC[C@H]53)c3ccccc43)[nH]c2c(OC)c1OC` [P-SS66C-CBI-TMI], which “Reductive Activation Index” value (KG-1 a (Blood)) is on record?
**A.** The value was 5.16.

**Q.** What about the “Reductive Activation Index” value (Kato III (Stomach)) of the same molecule?
**A.** The value was 7.4.

**Q.** What about the “Reductive Activation Index” value (LN229 (Brain)) of the same molecule?
**A.** The value was 5.44.

**Q.** What about the IC50 (LOU-NH91, read-out: IC50 [M] (ProliFiler-140), LOU-NH91 (Lung)) of the same molecule?
**A.** Its IC50 is 3.5e-08 M.

**Q.** And the “Reductive Activation Index” value (LnCap (Prostate))?
**A.** The value was 33.

**Q.** And the “Reductive Activation Index” value (M07e (Blood))?
**A.** Its value is 4.26.

**Q.** And the IC50 (M-07e, read-out: IC50 [M] (ProliFiler-140), M07e (Blood))?
**A.** Its IC50 is 3.25e-08 M.

**Q.** And the “Reductive Activation Index” value (MCAS (Ovary))?
**A.** Its value is 5.9 and 5.91.

**Q.** And the “Reductive Activation Index” value (MDA MB 231 (Breast))?
**A.** Its value is 5.44.

**Q.** And the “Reductive Activation Index” value (MDA MB 435 (Skin))?
**A.** The value was 8.6.

**Q.** And the IC50 (MDA MB 435 (Skin); read-out: IC50 [M] (ProliFiler-140))?
**A.** Its IC50 is 1.26e-07 M.

**Q.** What about the “Reductive Activation Index” value (MKN-1 (Stomach)) of the same molecule?
**A.** Its value is 11.1.

**Q.** What about the “Reductive Activation Index” value (MKN-45 (Stomach)) of the same molecule?
**A.** The value was 5.93.

**Q.** What about the “Reductive Activation Index” value (Mia PaCA 2 (Pancreas)) of the same molecule?
**A.** Its value is 4.38.

**Q.** And the “Reductive Activation Index” value (NALM-6 (Blood))?
**A.** The value was 22.62 and 23.

**Q.** What about the “Reductive Activation Index” value (NCI-H82 (Lung)) of the same molecule?
**A.** Its value is 8.5.

**Q.** And the “Reductive Activation Index” value (NCI-H441 (Lung))?
**A.** Its value is 5.81.

**Q.** And the “Reductive Activation Index” value (NCI-H838 (Lung))?
**A.** Its value is 10.

**Q.** And the “Reductive Activation Index” value (NCI-H1563 (Lung))?
**A.** Its value is 15.

**Q.** What about the “Reductive Activation Index” value (NCI-H1573 (Lung)) of the same molecule?
**A.** The value was 12.

**Q.** And the “Reductive Activation Index” value (NCI-H1703 (Lung))?
**A.** Its value is 16.

**Q.** What about the “Reductive Activation Index” value (NCI-H1838 (Lung)) of the same molecule?
**A.** Its value is 11.

**Q.** What about the IC50 (NCI-H2110, read-out: IC50 [M] (ProliFiler-140), NCI-H2110 (Lung)) of the same molecule?
**A.** The IC50 was 1.8e-08 M.

**Q.** What about the “Reductive Activation Index” value (NCI-N87 (Stomach)) of the same molecule?
**A.** Its value is 15.

**Q.** What about the “Reductive Activation Index” value (OCI-AML5 (Blood)) of the same molecule?
**A.** Its value is 5.7 and 5.67.

**Q.** And the “Reductive Activation Index” value (OCI-LY19 (Blood))?
**A.** The value was 5.41.

**Q.** And the “Reductive Activation Index” value (OPM-2 (Blood))?
**A.** Its value is 25.37.

**Q.** What about the “Reductive Activation Index” value (OV56 (Ovary)) of the same molecule?
**A.** The value was 2.79.

**Q.** And the IC50 (OV56, read-out: IC50 [M] (ProliFiler-140), OV56 (Ovary))?
**A.** Its IC50 is 7.25e-08 M.

**Q.** And the “Reductive Activation Index” value (OVCAR-3 (Ovary))?
**A.** Its value is 13.

**Q.** What about the “Reductive Activation Index” value (OVK18 (Ovary)) of the same molecule?
**A.** The value was 4.38.

**Q.** What about the IC50 (OVK18, read-out: IC50 [M] (ProliFiler-140), OVK18 (Ovary)) of the same molecule?
**A.** Its IC50 is 4.57e-08 M.

**Q.** And the “Reductive Activation Index” value (PANC-1 (Pancreas))?
**A.** The value was 6.9.

**Q.** And the “Reductive Activation Index” value (RERF-LC-Ad2 (Lung))?
**A.** The value was 5.5 and 5.54.

**Q.** What about the IC50 (RERF-LC-Ad2, read-out: IC50 [M] (ProliFiler-140), RERF-LC-Ad2 (Lung)) of the same molecule?
**A.** The IC50 was 1.4e-07 M.

**Q.** And the “Reductive Activation Index” value (RL95-2 (Endometrium))?
**A.** Its value is 5.93.

**Q.** What about the “Reductive Activation Index” value (SCLC-21H (Lung)) of the same molecule?
**A.** The value was 6.16.

**Q.** And the “Reductive Activation Index” value (SJSA-1 (Bone))?
**A.** The value was 3.87.

**Q.** What about the “Reductive Activation Index” value (SK-MEL-3 (Skin)) of the same molecule?
**A.** Its value is 6.6.

**Q.** And the “Reductive Activation Index” value (SK-N-FI (Brain))?
**A.** The value was 4.91.

**Q.** What about the “Reductive Activation Index” value (SK-N-SH (Brain)) of the same molecule?
**A.** The value was 6.5.

**Q.** And the “Reductive Activation Index” value (SNU840 (Ovary))?
**A.** The value was 1.11.

**Q.** And the “Reductive Activation Index” value (SNU-216 (Stomach))?
**A.** The value was 19.98 and 20.

**Q.** And the IC50 (SNU-216, read-out: IC50 [M] (ProliFiler-140), SNU-216 (Stomach))?
**A.** The IC50 was 9.22e-08 M.

**Q.** What about the IC50 (SNU-840, read-out: IC50 [M] (ProliFiler-140), SNU840 (Ovary)) of the same molecule?
**A.** Its IC50 is 6.29e-08 M.

**Q.** What about the “Reductive Activation Index” value (SU-DHL-5 (Blood)) of the same molecule?
**A.** Its value is 19 and 19.50.

**Q.** What about the “Reductive Activation Index” value (SW480 (Colon)) of the same molecule?
**A.** The value was 6.01.

**Q.** And the “Reductive Activation Index” value (SW620 (Colon))?
**A.** The value was 4.55.

**Q.** What about the “Reductive Activation Index” value (SW948 (Colon)) of the same molecule?
**A.** Its value is 4.75.

**Q.** What about the “Reductive Activation Index” value (Saos-2 EC (Bone)) of the same molecule?
**A.** Its value is 3.52.

**Q.** What about the “Reductive Activation Index” value (SiHa (Ovary)) of the same molecule?
**A.** Its value is 5.41.

**Q.** And the “Reductive Activation Index” value (T84 (Colon))?
**A.** The value was 5.69 and 5.7.

**Q.** And the “Reductive Activation Index” value (T-47D (Breast))?
**A.** The value was 11.

**Q.** And the “Reductive Activation Index” value (U2OS (Bone))?
**A.** Its value is 4.10.

**Q.** And the “Reductive Activation Index” value (U87MG (Brain))?
**A.** Its value is 8.0.

**Q.** And the “Reductive Activation Index” value (U118MG (Brain))?
**A.** The value was 2.11.

**Q.** And the “Reductive Activation Index” value (U251MG (Brain))?
**A.** Its value is 17.

**Q.** What about the “Reductive Activation Index” value (U-937 (Blood)) of the same molecule?
**A.** The value was 6.40.

**Q.** What about the “Reductive Activation Index” value (ZR-75-1 (Breast)) of the same molecule?
**A.** Its value is 4.62 and 4.6.

**Q.** What about the IC50 (read-out: IC50 [M] (ProliFiler-140), BEN (Lung)) of the same molecule?
**A.** Its IC50 is 5.3e-08 M.

**Q.** And the IC50 (read-out: IC50 [M] (ProliFiler-140), H4 (Brain))?
**A.** The IC50 was 1.39e-08 M.

**Q.** And the IC50 (read-out: IC50 [M] (ProliFiler-140), Hep3B2.1-7 (Liver))?
**A.** The IC50 was 1.7e-07 M.

**Q.** What about the IC50 (read-out: IC50 [M] (ProliFiler-140), J82 (Bladder)) of the same molecule?
**A.** Its IC50 is 9.55e-08 M.

**Q.** And the IC50 (read-out: IC50 [M] (ProliFiler-140), KG-1 (Blood))?
**A.** Its IC50 is 1.92e-07 M.

**Q.** And the IC50 (read-out: IC50 [M] (ProliFiler-140), LP-1 (Blood))?
**A.** Its IC50 is 1e-07 M.

**Q.** What about the IC50 (read-out: IC50 [M] (ProliFiler-140), MCAS (Ovary)) of the same molecule?
**A.** The IC50 was 1.4e-07 M.

**Q.** What about the IC50 (read-out: IC50 [M] (ProliFiler-140), PC3 (Prostate)) of the same molecule?
**A.** Its IC50 is 4.01e-08 M.

**Q.** And the IC50 (read-out: IC50 [M] (ProliFiler-140), PC-9 (Lung))?
**A.** Its IC50 is 1.4e-08 M.

**Q.** And the IC50 (read-out: IC50 [M] (ProliFiler-140), RERF-LC-MS (Lung))?
**A.** Its IC50 is 3.07e-08 M.

**Q.** And the IC50 (read-out: IC50 [M] (ProliFiler-140), RKO (Colon))?
**A.** The IC50 was 2.13e-08 M.

**Q.** What about the IC50 (read-out: IC50 [M] (ProliFiler-140), SCH (Stomach)) of the same molecule?
**A.** The IC50 was 1.5e-08 M.

**Q.** And the IC50 (read-out: IC50 [M] (ProliFiler-140), T84 (Colon))?
**A.** The IC50 was 1.6e-07 M.

**Q.** What about the IC50 (read-out: IC50 [M] (ProliFiler-140); 786-O (Kidney)) of the same molecule?
**A.** The IC50 was 2.9e-08 M.

**Q.** What about the IC50 (read-out: IC50 [M] (ProliFiler-140); A375 (Skin)) of the same molecule?
**A.** The IC50 was 5.5e-08 M.

**Q.** And the IC50 (read-out: IC50 [M] (ProliFiler-140); A427 (Lung))?
**A.** The IC50 was 4.42e-08 M.

**Q.** What about the IC50 (read-out: IC50 [M] (ProliFiler-140); A431 (Skin)) of the same molecule?
**A.** Its IC50 is 2e-08 M.

**Q.** What about the IC50 (read-out: IC50 [M] (ProliFiler-140); A498 (Kidney)) of the same molecule?
**A.** The IC50 was 9.4e-08 M.

**Q.** What about the IC50 (read-out: IC50 [M] (ProliFiler-140); A549 (Lung)) of the same molecule?
**A.** The IC50 was 3.03e-08 M.

**Q.** What about the IC50 (read-out: IC50 [M] (ProliFiler-140); A2058 (Skin)) of the same molecule?
**A.** The IC50 was 1.09e-08 M.

**Q.** What about the IC50 (read-out: IC50 [M] (ProliFiler-140); A2780 (Ovary)) of the same molecule?
**A.** Its IC50 is 8.13e-09 M.

**Q.** And the IC50 (read-out: IC50 [M] (ProliFiler-140); AsPC-1 (Pancreas))?
**A.** The IC50 was 2.62e-07 M.

**Q.** What about the IC50 (read-out: IC50 [M] (ProliFiler-140); BEN (Lung)) of the same molecule?
**A.** The IC50 was 5.35e-08 M.

**Q.** What about the IC50 (read-out: IC50 [M] (ProliFiler-140); BT-20 (Breast)) of the same molecule?
**A.** Its IC50 is 1.22e-07 M.
